27 compounds from patent publication US7109296B2, “Human 5-HT3-C protein” (Ortho-McNeil Pharmaceutical, Inc., priority 1999, dated 2006) can be followed below.

What all share (format): cell-based
Assay [1] has as its target T1, 5-HT3-C together with nicotinic ACh receptor subunits β1, β2 and β3 (Homo sapiens, UniProt Q8WXA8).
T1 construct: Characterization of the Function of Protein Encoded by p5HT3CR in Xenopus oocvtes; expressed in transfected cells; host or cells: Xenopus laevis oocytes injected with cRNA
T1 sequence (Q8WXA8 28-447): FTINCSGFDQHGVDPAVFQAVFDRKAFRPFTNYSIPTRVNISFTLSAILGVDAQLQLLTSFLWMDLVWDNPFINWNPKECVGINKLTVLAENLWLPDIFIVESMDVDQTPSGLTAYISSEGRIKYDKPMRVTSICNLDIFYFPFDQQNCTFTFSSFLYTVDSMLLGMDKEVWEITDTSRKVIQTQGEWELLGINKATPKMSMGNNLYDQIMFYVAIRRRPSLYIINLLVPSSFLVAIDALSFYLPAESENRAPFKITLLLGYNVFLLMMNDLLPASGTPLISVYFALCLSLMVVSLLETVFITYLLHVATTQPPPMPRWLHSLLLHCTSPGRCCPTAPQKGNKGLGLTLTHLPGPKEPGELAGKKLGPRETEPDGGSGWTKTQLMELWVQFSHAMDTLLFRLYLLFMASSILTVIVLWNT
The assay can be described thus: Two-electrode voltage clamp, oocytes injected with 5-HT3-C together with nicotinic ACh receptor subunits β1, β2 and β3.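 Also: oocytes expressing the subunits for 2–14 days, voltage-clamped at −70 mV under continuous ND96 perfusion at room temperature, with water-injected oocytes serving as controls.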 The settings on record: >100 μM; 5-HT3-C with β1, β2 and β3 (0.2–0.25 ng); n=5. (In general: Two-electrode voltage clamp holds a large cell at a set potential and records current.)

The target in assay [2] is T2, human 5-HT3-C (Homo sapiens, UniProt Q8WXA8).
T2 construct: Characterization of the Function of Protein Encoded by p5HT3CR in Xenopus oocvtes; expressed in transfected cells; host or cells: Xenopus laevis oocytes injected with in vitro transcribed cRNA (pGEM HE)
T2 sequence (Q8WXA8 28-447): T1 sequence (Q8WXA8 28-447)
The assay can be described thus: Two-electrode voltage clamp, Xenopus oocytes injected with 5-HT3-C cRNA alone. The settings on record: for sensitivity of oocytes to neuroactive compound: >100 μM, only 5-HT3-C cRNA (33.5 ng), n=5. The method, then:
Characterization of the Function of Protein Encoded by p5HT3CR in Xenopus oocvtes Xenopus laevis oocytes were prepared and injected using standard methods previously described and known in the art (Fraser et al., 1993). Ovarian lobes from adult female Xenopus laevis (Nasco, Fort Atkinson, Wis.) were teased apart, rinsed several times in nominally Ca-free saline containing (in mM): NaCl 82.5, KCl 2.5, MgCl2 1, HEPES 5, adjusted to pH 7.0 with NaOH(OR-2), and gently shaken in OR-2 containing 0.2% collagenase Type 1 (ICN Biomedicals, Aurora, Ohio) for 2–5 hours. When approximately 50% of the follicular layers were removed, Stage V and VI oocytes were selected and rinsed in media consisting of 75% OR-2 and 25% ND-96. The ND-96 contained (in mM): NaCl 100, KCl 2, MgCl2 1, CaCl2 1.8, HEPES 5, Na pyruvate 2.5, gentamicin (50 ug/ml), adjusted to pH 7.0 with NaOH. […] For in vitro transcription, pGEM HE (Liman et al., 1992) containing human 5-HT3-A (Genbank D49394) or 5-HT3-C cDNA was linearized with NheI and transcribed with T7 RNA polymerase (Stratagene) in the presence of the cap analog m7G(5′)ppp(5′)G. The synthesized cRNA was purified with a Sephadex G-50 spin column. […] Control oocytes were injected with 50 nl of water. Oocytes were incubated for 2–14 days in ND-96 before analysis for expression of the human 5-HT3-C. Incubations and collagenase digestion were carried out at room temperature. Injected oocytes were maintained in 48 well cell culture clusters (Costar, Cambridge, Mass.) at 18° C. Whole cell agonist-induced currents were measured 1–14 days after injection with a conventional two-electrode voltage clamp (GeneClamp500, Axon Instruments, Foster City, Calif.) using standard methods previously described and known in the art (Dascal, 1987). The microelectrodes were filled with 3 M KCl, which had resistances of 1 and 2 MΩ. Cells were continuously perfused with ND96 at 10 ml/min at room temperature unless indicated. Membrane voltage was clamped at −70 mV unless indicated.

For assay [3], the target named is T3, 5-HT3-C together with nicotinic ACh receptor a6 subunit (Homo sapiens, UniProt Q15825+Q8WXA8).
T3 construct: Characterization of the Function of Protein Encoded by p5HT3CR in Xenopus oocvtes; expressed in transfected cells; host or cells: Xenopus laevis oocytes injected with cRNA
Briefly: Two-electrode voltage clamp, oocytes injected with 5-HT3-C together with nicotinic ACh receptor α6 subunit. Conditions: 500 μM; eight days after injection; 5-HT3-C 0.67 ng, a6 1 ng/oocyte. The procedure:
Characterization of the Function of Protein Encoded by p5HT3CR in Xenopus oocvtes Xenopus laevis oocytes were prepared and injected using standard methods previously described and known in the art (Fraser et al., 1993). Ovarian lobes from adult female Xenopus laevis (Nasco, Fort Atkinson, Wis.) were teased apart, rinsed several times in nominally Ca-free saline containing (in mM): NaCl 82.5, KCl 2.5, MgCl2 1, HEPES 5, adjusted to pH 7.0 with NaOH(OR-2), and gently shaken in OR-2 containing 0.2% collagenase Type 1 (ICN Biomedicals, Aurora, Ohio) for 2–5 hours. When approximately 50% of the follicular layers were removed, Stage V and VI oocytes were selected and rinsed in media consisting of 75% OR-2 and 25% ND-96. The ND-96 contained (in mM): NaCl 100, KCl 2, MgCl2 1, CaCl2 1.8, HEPES 5, Na pyruvate 2.5, gentamicin (50 ug/ml), adjusted to pH 7.0 with NaOH. […] For in vitro transcription, pGEM HE (Liman et al., 1992) containing human 5-HT3-A (Genbank D49394) or 5-HT3-C cDNA was linearized with NheI and transcribed with T7 RNA polymerase (Stratagene) in the presence of the cap analog m7G(5′)ppp(5′)G. The synthesized cRNA was purified with a Sephadex G-50 spin column. Oocytes were injected with 50 nl of the human serotonin 5-HT3-A receptor with or without the 5-HT3-C RNA (0.02 and 0.002–0.2 ng each) or other channel or receptor subunit. Control oocytes were injected with 50 nl of water. Oocytes were incubated for 2–14 days in ND-96 before analysis for expression of the human 5-HT3-C. Incubations and collagenase digestion were carried out at room temperature. Injected oocytes were maintained in 48 well cell culture clusters (Costar, Cambridge, Mass.) at 18° C. Whole cell agonist-induced currents were measured 1–14 days after injection with a conventional two-electrode voltage clamp (GeneClamp500, Axon Instruments, Foster City, Calif.) using standard methods previously described and known in the art (Dascal, 1987). The microelectrodes were filled with 3 M KCl, which had resistances of 1 and 2 MΩ. […]

Where [4] appears, read: 10 μM, oocytes injected with 33.3 ng 5-HT3-C cRNA.

Structures are written as SMILES. Where a SMILES comes first, the peptide text is derived from it.

T3 sequence (Q15825 26-494, one chain of several): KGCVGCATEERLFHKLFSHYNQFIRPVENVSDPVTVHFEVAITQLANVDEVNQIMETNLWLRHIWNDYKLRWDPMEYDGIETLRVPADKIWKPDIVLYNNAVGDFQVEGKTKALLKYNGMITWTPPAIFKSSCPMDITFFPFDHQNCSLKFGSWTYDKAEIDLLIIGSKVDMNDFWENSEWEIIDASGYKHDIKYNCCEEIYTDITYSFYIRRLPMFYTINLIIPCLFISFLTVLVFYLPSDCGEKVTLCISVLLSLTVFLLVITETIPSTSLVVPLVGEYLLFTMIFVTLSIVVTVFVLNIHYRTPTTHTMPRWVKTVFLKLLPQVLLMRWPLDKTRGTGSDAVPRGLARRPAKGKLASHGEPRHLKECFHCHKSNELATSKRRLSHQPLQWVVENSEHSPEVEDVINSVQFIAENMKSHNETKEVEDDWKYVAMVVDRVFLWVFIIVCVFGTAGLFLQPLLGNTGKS

Take `O=C(O)Cc1c[nH]c2ccc(O)cc12` [5-hydroxyindolacetic acid]: the “sensitivity of oocytes to neuroactive compound” value (“sensitivity of oocytes” for short) in assay [1] and in assay [2] was “insensitive” throughout.

`O=C(O)c1cc2cc(O)ccc2[nH]1` [5-hydroxyindole 2-carboxylic acid]: the “sensitivity of oocytes” value in assay [1] and in assay [2] was “insensitive” each time.

With `NC(=O)Cc1c[nH]c2ccc(O)cc12` [5-hydroxyindole 3-acetamide], the “sensitivity of oocytes” value in assay [1] and in assay [2] was “insensitive” in each case.

Consider `COc1cc2c(CCNC(C)=O)c[nH]c2cc1O` [6-hydroxymelatonin], for which the “sensitivity of oocytes” value in assay [1] and in assay [2] was “insensitive” each time.

Take `CC(=O)OCC[N+](C)(C)C` [ACh]: the “sensitivity of oocytes” value in assay [1] and in assay [2] was “insensitive” in each case. For the same compound, the “effect of agonist (agonist-induced current)” value (shortened to “effect of agonist”) is recorded as “No effect” in assay [2] (setting [4]) and “No effect” in assay [2] (500 μM, oocytes injected with 33.5 ng 5-HT3-C). Moreover, the “responsiveness of oocytes to agonist” value in assay [3] is “not responsive”.

`NCCc1ccc(O)c(O)c1` [DA, dopamine]: the “sensitivity of oocytes” value in assay [1] and in assay [2] was “insensitive” in each case. The “effect of agonist” value in assay [2] (100 μM, oocytes injected with 33.5 ng 5-HT3-C) is “No effect”.

In the case of `NCCCC(=O)O` [GABA], the “sensitivity of oocytes” value in assay [1] and in assay [2] was “insensitive” throughout. The “effect of agonist” value in assay [2] (>30 μM, oocytes injected with 33.3 ng 5-HT3-C cRNA) is given as “No effect”.

In the case of `N[C@H](CC(=O)O)C(=O)O` [L-aspartate, L- and D-aspartate], the “sensitivity of oocytes” value in assay [1] and in assay [2] was “insensitive” each time.

With `CC(=O)NCCc1c[nH]c2ccc(O)cc12` [N-acetyl serotonin], the “sensitivity of oocytes” value in assay [1] and in assay [2] was “insensitive” in each case.

For the compound `CC(=O)N[C@@H](CS)C(=O)O` [N-acetyl-L-cysteine], the “sensitivity of oocytes” value in assay [1] and in assay [2] was “insensitive” in each case.

Regarding `CC(=O)N[C@@H](CC(=O)O)C(=O)N[C@@H](CCC(=O)O)C(=O)O` [acetyl-aspartyl-L-glutamic acid] (Ac-Asp-Glu-OH), the “sensitivity of oocytes” value in assay [1] and in assay [2] was “insensitive” throughout.

Regarding `N=C(N)NCCCCN` [agmatine], the “sensitivity of oocytes” value in assay [1] and in assay [2] was “insensitive” in each case.

For the compound `NC/C=C\C(=O)O` [cis-4 aminocrotonic acid], the “sensitivity of oocytes” value in assay [1] and in assay [2] was “insensitive” each time.

In the case of `N[C@@H]1CONC1=O` [d-cycloserine], the “sensitivity of oocytes” value in assay [1] and in assay [2] was “insensitive” in each case.

Regarding `N[C@@H](CCC(=O)O)C(=O)O` [glutamate], the “sensitivity of oocytes” value in assay [1] and in assay [2] was “insensitive” each time.

On to `NCC(=O)O` [glycine], for which the “sensitivity of oocytes” value in assay [1] and in assay [2] was “insensitive” throughout. In addition, the “effect of agonist” value in assay [2] (100 M, oocytes injected with 33.3 ng 5-HT3-C cRNA) is listed as “No effect”.

As to `NCCc1c[nH]cn1` [histamine], the “sensitivity of oocytes” value in assay [1] and in assay [2] was “insensitive” each time. In assay [2] (setting [4]), the “effect of agonist” value is listed as “No effect”.

In the case of `COc1ccc2[nH]cc(CCNC(C)=O)c2c1` [melatonin], the “sensitivity of oocytes” value in assay [1] and in assay [2] was “insensitive” each time.

On to `NC[C@H](O)c1ccc(O)c(O)c1` [norepinephrine], for which the “sensitivity of oocytes” value in assay [1] and in assay [2] was “insensitive” in each case.

For the compound `NCC(O)c1ccc(O)cc1` (stereo not shown) [octopamine], the “sensitivity of oocytes” value in assay [1] and in assay [2] was “insensitive” in each case.

Take `NCCS(=O)(=O)O` [taurine]: the “sensitivity of oocytes” value in assay [1] and in assay [2] was “insensitive” in each case.

As to `NCCc1c[nH]c2ccccc12` [tryptamine], the “sensitivity of oocytes” value in assay [1] and in assay [2] was “insensitive” throughout.

Turning to `N[C@@H](Cc1c[nH]c2ccccc12)C(=O)O` [tryptophan], the “sensitivity of oocytes” value in assay [1] and in assay [2] was “insensitive” each time.

Regarding `NC(=O)[C@@H](N)Cc1c[nH]c2ccccc12` [tryptophanamide], the “sensitivity of oocytes” value in assay [1] and in assay [2] was “insensitive” throughout.

As to `NCCc1ccc(O)cc1` [tyramine], the “sensitivity of oocytes” value in assay [1] and in assay [2] was “insensitive” throughout.

For the compound `NCCC(=O)O` [β-alanine], the “sensitivity of oocytes” value in assay [1] and in assay [2] was “insensitive” each time.

On to `NCCc1ccccc1` [β-phenylethylamine], for which the “sensitivity of oocytes” value in assay [1] and in assay [2] was “insensitive” in each case.
